Target: T1, Serotonin 3 (5-HT3) receptor (Rattus norvegicus, UniProt P35563+Q9JJ16)
T1 sequence (P35563 whole entry): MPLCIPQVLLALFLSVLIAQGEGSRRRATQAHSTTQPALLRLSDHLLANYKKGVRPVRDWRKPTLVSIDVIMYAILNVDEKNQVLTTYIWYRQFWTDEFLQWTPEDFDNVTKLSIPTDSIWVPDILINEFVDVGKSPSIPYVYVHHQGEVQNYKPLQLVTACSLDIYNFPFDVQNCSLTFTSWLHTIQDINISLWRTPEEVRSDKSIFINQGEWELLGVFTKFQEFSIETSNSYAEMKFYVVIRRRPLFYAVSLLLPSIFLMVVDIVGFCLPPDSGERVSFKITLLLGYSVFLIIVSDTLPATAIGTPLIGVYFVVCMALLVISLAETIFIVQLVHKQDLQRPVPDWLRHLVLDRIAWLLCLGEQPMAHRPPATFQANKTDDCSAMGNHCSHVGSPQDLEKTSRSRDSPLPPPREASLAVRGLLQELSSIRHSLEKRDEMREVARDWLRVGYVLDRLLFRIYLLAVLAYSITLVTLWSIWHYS
T1 sequence (Q9JJ16 whole entry): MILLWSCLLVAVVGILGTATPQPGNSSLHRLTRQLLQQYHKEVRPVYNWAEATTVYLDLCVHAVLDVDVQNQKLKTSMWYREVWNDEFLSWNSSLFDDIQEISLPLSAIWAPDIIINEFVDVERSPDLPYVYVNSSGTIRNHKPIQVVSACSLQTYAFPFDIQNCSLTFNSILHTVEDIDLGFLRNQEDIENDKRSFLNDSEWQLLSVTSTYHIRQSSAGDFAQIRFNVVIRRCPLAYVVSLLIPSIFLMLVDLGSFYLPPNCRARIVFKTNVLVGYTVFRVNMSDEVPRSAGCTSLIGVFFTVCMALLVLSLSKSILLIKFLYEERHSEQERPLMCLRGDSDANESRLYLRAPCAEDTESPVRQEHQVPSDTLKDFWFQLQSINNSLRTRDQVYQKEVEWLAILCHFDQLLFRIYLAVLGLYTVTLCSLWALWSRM
Experiment: Rat 5-hydroxytryptamine 3 receptor (5-HT3) antagonist
Assay type: functional

| Compound | Ki |
| --- | --- |
| CCN1CCN(c2nc3ccccc3c3c2cc(OC)c2ccccc23)CC1 | 224 nM |
| COc1cc2c(SCCN(C)C)nc3ccccc3c2c2ccccc12 | 10000 nM |
| CN1CCN(c2nc3ccccc3c3c2CCCC3)CC1 | 0.0977 nM |
| c1ccc2c(c1)ccc1c(N3CCNCC3)nc3ccccc3c12 | 132 nM |
| CN1CCN(c2nc3ccccc3c3c2CSCC3)CC1 | 0.398 nM |
| CCc1c(C)c(N2CCN(C)CC2)nc2ccccc12 | 0.537 nM |
| CN(C)CCSc1nc2ccccc2c2c1ccc1ccccc12 | 10000 nM |
| CN(C)CCSc1nc2ccccc2c2c1COc1ccccc1-2 | 10000 nM |
| CN1CCN(c2nc3ccccc3c3c2CN(C)CC3)CC1 | 3.16 nM |
| CN1CCN(c2nc3ccccc3c3c2CCC3)CC1 | 0.0708 nM |
| CN(C)CCSc1nc2ccccc2c2c1CCc1ccccc1-2 | 10000 nM |
| c1ccc2c3c(c(N4CCNCC4)nc2c1)CCCC3 | 0.1 nM |
